Values after ≈ are worked out from the molar mass of the structure shown. Like-named read-outs stand apart in the source and are kept apart here. Residues, ends and D or L forms follow the SMILES beside them. *: point of attachment. Lithocholoyl = C[C@H](CCC(=O)*)[C@H]1CC[C@H]2[C@@H]3CC[C@@H]4C[C@H](O)CC[C@]4(C)[C@H]3CC[C@]12C
Tests used:
Staph. aureus = experiment: Transmission electron microscopy of treated bacteria; assay type: cell-based, Staphylococcus aureus; conditions: 1 to 4 h incubation; media with (Mueller–Hinton broth 2) and without nutrients (potassium phosphate buffer)
Description: Pictures of damaged bacterial cells were obtained by transmission electron microscopy after 1 to 4 h of incubation. Cells of the Gram-positive bacterial strains were not stained. A JEOL JEM-1010 transmission electron microscope (JEOL, Tokyo, Japan) equipped with a MegaView III CCD camera was used for visualization, and evaluation was performed with the program for image analysis AnalySIS software v. 2.0 (Soft Imaging Systems). The samples were plated on a carbon-coated electron microscopic grid and observed with an accelerating voltage of 80 kV.

M. luteus DBM 3053 = assay type: cell-based, Micrococcus luteus; conditions: for MIC: DBM 3053, 24 h; for IC50: DBM 3053, 25 h
Description: (§1) A Bioscreen C automated microbiology growth curve analysis system (Growth Curves, Piscataway, NJ, USA) was used for the quantitative determination of antimicrobial activity (minimal inhibitory concentration, MIC) of PAL/LCA-peptides. Optical density was measured with a wide bandpass filter (wavelength range 420–580 nm) at regular intervals and temperatures. This assay was performed in a special microtiter plate (10 × 10 wells) that allowed the simultaneous testing of a large number of samples against several microorganisms. The total testing volume was 100 µL, obtained by mixing 10 µL of microbial culture with OD600 equal to 0.1 with growth medium and a solution of the tested compounds. The positive controls were vancomycin and tetracycline for Bacillus subtilis (100 µg/mL) for Gram-positive bacteria, kanamycin, and tetracycline for Acinetobacter baumannii (100 µg/mL) for Gram-negative bacteria, and clotrimazole or amphotericin (100 µg/mL) for fungi. The maximal concentration of tested lipoproteins was 1 mg/mL. A pure growth medium was used as the negative control. The measurement period was 25 h. The lowest concentration with a 100% inhibition effect for 24 h of incubation was chosen as the MIC. The antibacterial activity of each compound was expressed as the minimum inhibitory concentration MIC (MIC is the lowest concentration of the compound needed to inhibit the growth of bacterial cells) and IC50 (IC50 is the concentration of the compound needed to inhibit the growth of bacterial cells by 50%).

Ps. aeruginosa DBM 3081 = assay type: cell-based, Pseudomonas aeruginosa; conditions: 25 h
Description: as §1

HEK293T = experiment: Cytotoxicity assay (xCELLigence impedance); assay type: cell-based, human; conditions: 24 h exposure
Description: (§2) Experiments were carried out using an xCELLigence RTCA DP Instrument (Roche Diagnostics GmbH, Mannheim, Germany) which was placed into an incubator (37 °C and 5% CO2). Cell proliferation and cytotoxicity experiments were performed using modified 16-well plates (E-plate, Roche Diagnostics GmbH, Mannheim, Germany). Microelectrodes were attached to the bottom of the wells for the impedance-based detection of attachment, spreading, and proliferation of the cells (Stoddart [2011]). This system monitors cellular events in real time without the incorporation of labels by measuring electrical impedance across an interdigitated microelectrode integrated into the bottom of this special tissue culture plate. This impedance measurement improves upon conventional endpoint assays and provides quantitative information about the biological status of the cells, including cell number, adhesion, viability, and morphology. Ninety microliters of cultivation medium was used for the blank sample, and subsequently, 100 µL of HepG2 or HEK293T cell suspension (7 × 10^5 cells/mL) was added and placed into the incubator (37 °C, 95% humidity, 5% CO2). […] Chrysophsin-3 at a concentration of 100 µg/mL was used as a positive control and solvent (deionized water) as a negative control. Subsequent incubation was performed for at least an additional 24 h. The result of the measurement was viability curves. After the measurement, percentages of tissue culture growth inhibition were calculated for all the tested substances, as follows: %inhibition=(1-(ΔϕCIsample)/(ΔϕCIcontrol))·100
(§3) Δ∅CIsample … the difference between the first and last average CI (cell index) values of the tissue culture in the presence of the tested sample.
(§4) Δ∅CIcontrol … the difference between the first and last average CI values of the tissue culture itself.

HepG2 = experiment: Cytotoxicity assay (xCELLigence impedance); assay type: cell-based, human; conditions: for % inhibition: 24 h exposure
Description: as §2, §3, §4

C. tropicalis DBM 2166 = assay type: cell-based, Candida tropicalis; conditions: for IC50: DBM 2166, 25 h
Description: as §1

Staph. aureus MRSA1 [1] = assay type: cell-based, Staphylococcus aureus; conditions: 2xMIC, 37 °C
Description: This assay was used to determine how quick the effect of PAL/LCA-peptides is on bacteria, as well as whether the activity of these compounds is dependent on the presence of active bacterial metabolism (Kamysz et al. [2007]). The bacterial cultures were incubated overnight at 37 °C in Mueller–Hinton’s broth 2 or potassium phosphate buffer (0.1 M, pH 7). Cultures were diluted to OD600 equal to 0.1 and divided into 2 samples, and the final volume of each sample was 1 mL; after that, they were centrifuged (5000 × g, 10 min) to collect bacteria. […] The samples were incubated at 37 °C. At specific time intervals, samples of bacterial suspension were taken, diluted, and spread on Petri dishes with Mueller–Hinton’s agar to count the number of surviving cells as colony-forming units (CFU). The whole experiment lasted 24 h.

Staph. aureus DBM 3002 = assay type: cell-based, Staphylococcus aureus; conditions: for MIC: 24 h; for IC50: 25 h
Description: as §1

Staph. aureus MRSA1 [2] = assay type: cell-based, Staphylococcus aureus; conditions: for MIC: 24 h; for IC50: 25 h
Description: as §1

B. subtilis DBM 3006 = assay type: cell-based, Bacillus subtilis; conditions: for MIC: DBM 3006, 24 h; for IC50: DBM 3006, 25 h
Description: as §1

bacterial membrane = experiment: Membrane disruption (released lactate dehydrogenase activity); assay type: cell-based, Staphylococcus aureus; conditions: 1 h incubation at 37 °C, LDH kit, triplets
Description: The disruption of the microbial membrane was followed by the detection of lactate dehydrogenase activity released from the intracellular space using a Cytotoxicity Detection Kit (LDH) from Roche (Korzeniewski and Callewaert [1983]; Macurkova et al. [2014]) after 1 h incubation at 37 °C with the PAL/LCA-peptide. The culture supernatant was collected and incubated with the reaction mixture from the kit. In the first step, NAD^+ is reduced to NADH + H^+ by the LDH-catalyzed conversion of lactate to pyruvate. In the second step, the catalyst (diaphorase) transfers H/H^+ from NADH + H^+ to the tetrazolium salt 2-(4-iodophenyl)-3-(4-nitrophenyl)-5-phenyl-2H-tetrazolium chloride (INT), which is reduced to formazan. The formazan dye formed is red and water-soluble and gives a broad absorption maximum at 500 nm. An increase in the amount of dead or plasma membrane-damaged cells results in an increase in the LDH activity in the cell culture supernatant.
To determine the degree of damage to the cell membrane (%) by the tested substances, averages of absorbances (triplets) were calculated from the measured values for the samples, controls, and pure medium. Subsequently, the absorbance average for the clean medium (background) was subtracted from all averages obtained in this way. The degree of damage to the cell membrane by the tested substances was expressed as follows: membranedamage%=((AVZ-∅ANK)/(∅APK-ANK))∙100 ∅AVZ⋯averageabsorbanceofsample ∅ANK⋯averageabsorbanceofnegativecontrol ∅APK⋯averageabsorbanceofpositivecontrol

E. coli DBM 3001 = assay type: cell-based; conditions: DBM 3001, 25 h
Description: as §1

E. faecalis DBM 3075 = assay type: cell-based; conditions: for IC50: DBM 3075, 25 h
Description: as §1

DNA = conditions: ref Ball et al. [2004]; cited from earlier work
From the text: The majority of the known antimicrobial peptides have been isolated from natural sources. Recently genomic and proteomic methods have also been applied for peptide identification. Knowledge obtained by both classical and novel methods can be used to design the chemical synthesis of new peptide compounds with biological properties. The sequence analysis of natural antimicrobial peptides led to a template, with which it is possible to generate active AMPs (Tossi et al. [1997]; Giangaspero et al. [2001]; Tossi et al. [2000]). We designed three scrambled hexapeptides, one according to this templat ...

A. baumannii DBM 3183 = experiment: microbe, parasite or virus in culture; assay type: cell-based, Acinetobacter baumannii; conditions: DBM 3183, 25 h
Description: as §1

[3] = system: plasmid pBluescript II KS-; experiment: DNA binding assay (gel retardation); conditions: 50 ng DNA, 1 h room temperature, 1% agarose gel
Description: This assay was performed as described by Park et al. ([1998]), with a few modifications. […] The reaction mixture was incubated at room temperature for 1 h. Subsequently, 4 µL of native loading buffer (10% Ficol, 10 mM Tris–HCl (pH 7.5), 50 mM EDTA, 0.25% bromophenol blue) was added. An aliquot was applied to 1% agarose gel electrophoresis in 0.5xTris borate-EDTA buffer. Circular plasmid DNA was isolated from (Luria–Bertani medium with AMPI in final concentration 100 µg/mL) bacterial strain E. coli DH5α / pBluescriptII KS- that had been grown overnight, and linearization was performed overnight by enzymatic reaction using restriction endonuclease EcoRV at 37 °C. The evaluation was performed by visualizing the DNA with the intercalation dye Midori Green Advanced DNA Stain under UV light. Reduced electrophoretic mobility compared to the control is considered to be evidence of peptide binding to DNA.
According to the previous results, we decided to clarify one of the possible molecular interaction mechanisms, the ability of the studied lipopeptides to bind microbial plasmid DNA. Based on the assumption that pore formation is only one of the influencing factors, which arose from previous results, the effect on one of the possible intracellular targets, DNA, was determined. This determination was carried out on isolated plasmid DNA, specifically on two plasmids, pGreen 0029 and pBluescript II KS- in circular and linearized form.

Compound | morphological effect on bacterial cells (TEM) (Staph. aureus) | MIC (M. luteus DBM 3053) | IC50 (M. luteus DBM 3053) | IC50 (Ps. aeruginosa DBM 3081) | % inhibition (HEK293T; c 50 µg/mL) | % inhibition (HEK293T; c 100 µg/mL) | % inhibition (HEK293T; c 200 µg/mL) | % inhibition (HepG2; c 50 µg/mL) | % inhibition (HepG2; c 100 µg/mL) | IC50 (C. tropicalis DBM 2166) | MIC (Staph. aureus DBM 3002) | IC50 (Staph. aureus DBM 3002) | MIC (Staph. aureus MRSA1 [2]) | IC50 (Staph. aureus MRSA1 [2]) | MIC (B. subtilis DBM 3006) | IC50 (B. subtilis DBM 3006) | IC50 (E. coli DBM 3001) | IC50 (E. faecalis DBM 3075) | further results
CC(C)C[C@H](NC(=O)CC[C@@H](C)[C@H]1CC[C@H]2[C@@H]3CC[C@@H]4C[C@H](O)CC[C@]4(C)[C@H]3CC[C@]12C)C(=O)N[C@H](C(=O)N[C@@H](CCCCN)C(=O)N[C@@H](CCCNC(=N)N)C(=O)N[C@@H](C)C(=O)NCC(N)=O)C(C)C [SHP-1.3, LCA-LVKRAG-NH2] (Lithocholoyl-LVKRAG-NH2) | damaging cellular envelopes | 5.5 µg/mL (≈ 5.5 µM) | 10.0 µg/mL (≈ 10 µM) | N / > 100.0 µg/mL | 63.8 ± 9.6% | 72.0 ± 10.8% | 84.1 ± 12.6% | 57.4 ± 8.6% | 92.8 ± 13.9% | 30.0 µg/mL (≈ 30 µM) | 33.0 µg/mL (≈ 33 µM) | 50.0 µg/mL (≈ 50 µM) | 30.6 µg/mL (≈ 30.6 µM) | 50.0 µg/mL (≈ 50 µM) | 31.5 µg/mL (≈ 31.5 µM) | 40.0 µg/mL (≈ 40 µM) | N / > 100.0 µg/mL | 100.0 µg/mL (≈ 100 µM) | % inhibition (HepG2; c 200 µg/mL): 97.8 ± 14.7%; efficiency on HepG2 cells (HepG2; concentration not given): 97%; MIC (C. tropicalis DBM 2166; first value of cell 'MIC / IC50', 100% inhibition for 24 h): 10.3 µg/mL (≈ 10.3 µM); bacteria killed within half an hour (Staph. aureus MRSA1 [1]; about 10^7 cells, SHP-1.2 only in medium with nutrients, SHP-1.3 in both media): 100%; killing activity (%) (Staph. aureus MRSA1 [1]; KP (potassium phosphate buffer, without nutrients)): 100 ± 18%; killing activity (%) (Staph. aureus MRSA1 [1]; MHB (Mueller–Hinton broth II, with nutrients)): 100 ± 12%; Membrane damage (%) (bacterial membrane; KP (potassium phosphate buffer)): 30 ± 5%; Membrane damage (%) (bacterial membrane; MHB (Mueller–Hinton broth II)): 0 ± 5%; MIC (E. faecalis DBM 3075; DBM 3075, 24 h): 71.5 µg/mL (≈ 71.5 µM)
C[C@H](CCC(=O)O)[C@H]1CC[C@H]2[C@@H]3CC[C@@H]4C[C@H](O)CC[C@]4(C)[C@H]3CC[C@]12C [LCA, lithocholic acid] |  |  |  |  |  |  |  |  |  |  |  |  |  |  |  |  |  |  | concentration range in which mutagenic factor (DNA): 200 to 400 µM
CC(C)C[C@H](NC(=O)CC[C@@H](C)[C@H]1CC[C@H]2[C@@H]3CC[C@@H]4C[C@H](O)CC[C@]4(C)[C@H]3CC[C@]12C)C(=O)N[C@H](C(=O)N[C@@H](CCCCN)C(=O)NCC(=O)N[C@@H](C)C(=O)N[C@@H](CCCNC(=N)N)C(N)=O)C(C)C [SHP-2.3, LCA-LVKGAR-NH2] (Lithocholoyl-LVKGAR-NH2) | damaging cellular envelopes | 1.6 µg/mL (≈ 1.6 µM) | 5.0 µg/mL (≈ 5 µM) | N / > 100.0 µg/mL | 25.6 ± 3.8% | 42.2 ± 6.3% | 85.1 ± 12.8% | 7.4 ± 1.1% | 0.0 ± 2.2% | 75.0 µg/mL (≈ 75 µM) | 31.9 µg/mL (≈ 31.9 µM) | 50.0 µg/mL (≈ 50 µM) | 25.1 µg/mL (≈ 25.1 µM) | 50.0 µg/mL (≈ 50 µM) | 6.9 µg/mL (≈ 6.9 µM) | 20.0 µg/mL (≈ 20 µM) | N / > 100.0 µg/mL | N / > 100.0 µg/mL | IC50 (A. baumannii DBM 3183): N / > 100.0 µg/mL; MIC (C. tropicalis DBM 2166; DBM 2166, 24 h): 56.4 µg/mL (≈ 56.4 µM); weight ratio lipopeptide:DNA influencing electrophoretic mobility ([3]; circular plasmid): 10.0; weight ratio lipopeptide:DNA influencing electrophoretic mobility ([3]; linearized plasmid): 10.0
